Test results: US5468760A, “Aralkyl-N-hydroxyureas as inhibitors of 5-lipoxygenase and oxidation of low density lipoprotein” (American Home Products Corporation, priority 1993, dated 1995)

Assays:
LTB4 Synthesis = experiment: Reverse Passive Arthus Reaction (pleurisy), LTB4 in pleural exudate; type: in vivo, rat (male Lewis); details: for % Inhibition of LTB4 / ED50: standard drugs; for ED50: Rattus norvegicus, po, values in parentheses are ED50, read-out: (ED50) Inhibition of LTB4
Procedure: 3. Reverse Passive Arthus Reaction
A reverse passive Arthus reaction is induced in the pleural cavity of male Lewis rats (150-200 g; fasted overnight prior to use) by the intravenous administration of bovine serum albumin (BSA; 4 mg/0.2 ml) followed 30 minutes later by the injection of rabbit anti-BSA (1 mg/0.2 ml; lyophilized IgG fraction; Organon Teknika, West Chester, Pa.) into the right pleural space under halothane anesthesia. Drugs or vehicle (0.5% Tween-80) control are administered orally in a volume of 1 ml/100 g body weight at 1 hour prior to the anti-BSA. Animals are sacrificed at either the time of peak eicosanoid production (i.e. 5 minutes after anti-BSA for immunoreactive TxB2, 10 minutes for immunoreactive LTB4, 20 minutes for immunoreactive LTC4) or at the time of peak neutrophil infiltration (4 hours after anti-BSA) by CO2 inhalation. The pleural cavity is then exposed., the fluid exudate removed by gentle vacuum aspiration and the volume of exudate is recorded. For the determination of cellular infiltration, the pleural cavity is rinsed with 3 ml of 0.1% EDTA in sterile saline, and the recovered wash is pooled with the exudate. Cell number is determined on a model ZBI Coulter counter. For determination of eicosanoid production, undiluted pleural exudate is microfuged and the supernatant is extracted with ethanol (8-10 times volume). Extracts are either stored at -20° C., or are evaporated to dryness under a stream of N2 and reconstituted in radioimmunoassay (RIA) buffer.
Eicosanoids are quantitated by RIA according to the procedure specified by the RIA kit manufacturer (Advanced Magnetics, Cambridge, Mass.). Briefly, 100 μl of ^3 H-labeled eicosanoid and 100 μl of specific antibody are sequentially added to 100 μl of extracted pleural exudate in BGG-phosphate buffer which contains 0.01M phosphate, 0.1% bovine gamma globulin and 0.1% sodium azide at pH 7.0. Antibody-bound eicosanoid is separated from unbound eicosanoid by the addition of 750 μl of dextran (0.4%)-coated charcoal (Norit A) containing 0.1% sodium azide. The mixture is centrifuged at 2000 RPM at 5° C. for 15 minutes to pellet the charcoal and adsorbed unbound eicosanoid. Antibody-bound labeled eicosanoid is quantitated by counting in a liquid scintillation counter, and is correlated to concentration by a standard curve.

5-Lipoxygenase = biological target: T1, 5-Lipoxygenase (Homo sapiens, UniProt P09917); experiment: Inhibition of 5-Lipoxygenase in Human Whole Blood (LTB4, calcium ionophore A23187); type: cell-based
T1 construct: endogenous in cells; host or cells: human whole blood from male donors (results expressed per 10^6 neutrophils)
T1 sequence (P09917 1-674): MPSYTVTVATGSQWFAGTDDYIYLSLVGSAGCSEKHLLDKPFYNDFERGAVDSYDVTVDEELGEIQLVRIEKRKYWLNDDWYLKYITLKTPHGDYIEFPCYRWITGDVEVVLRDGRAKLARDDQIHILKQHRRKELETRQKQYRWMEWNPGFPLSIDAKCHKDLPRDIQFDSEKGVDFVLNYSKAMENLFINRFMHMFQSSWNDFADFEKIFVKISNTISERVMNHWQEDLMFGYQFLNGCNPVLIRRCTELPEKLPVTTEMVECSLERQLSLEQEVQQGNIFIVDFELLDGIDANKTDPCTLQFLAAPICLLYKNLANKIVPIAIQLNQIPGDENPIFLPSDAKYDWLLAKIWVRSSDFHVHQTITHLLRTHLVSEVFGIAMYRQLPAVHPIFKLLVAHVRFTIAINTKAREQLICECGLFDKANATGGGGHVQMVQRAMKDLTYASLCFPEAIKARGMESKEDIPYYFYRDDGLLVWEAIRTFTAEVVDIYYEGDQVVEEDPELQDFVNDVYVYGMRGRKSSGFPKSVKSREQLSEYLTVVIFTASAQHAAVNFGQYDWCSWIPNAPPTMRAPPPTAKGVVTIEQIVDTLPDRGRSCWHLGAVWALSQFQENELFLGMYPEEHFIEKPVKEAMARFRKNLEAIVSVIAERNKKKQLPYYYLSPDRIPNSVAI
Procedure: 1. Inhibition of 5-Lipoxygenase in Human Whole Blood
Blood is obtained in 50-100 ml quantities from male donors. White blood cell counts and differentials are made. Two ml of blood are placed in a 15 ml polypropylene test tube. Test compounds are solubilized in dimethylsulfoxide and diluted in 1:10 in 10% bovine serum albumin in phosphate buffered saline, pH 7.4 resulting in a final dimethylsulfoxide concentration of 0.1% in the blood. Then, solutions of test compounds are added to the blood in a shaking water bath at 37° C. for 10 minutes prior to the addition of 30 μM calcium ionophore (A23 187, Sigma). After ionophore administration, whole blood samples are mixed and incubated for 20 minutes at 37° C. in a shaking water bath. Incubation is terminated by placing samples in an ice bath and immediately adding ethylene glycol-bis-(β-aminoethyl ether)-N,N,N',N'-tetraaceticacid (10 mM). Samples are mixed and centrifuged at 1200 x g for 15 minutes at 4° C. Preparation of samples for evaluation by RIA or ELISA is carried out by the following protocol. Plasma is removed from sample tubes, placed in 15 ml polypropylene test tubes containing 8 ml methanol, and then vortexed to precipitate protein. Samples are stored at -70° C. overnight. The next day, samples are centrifuged at 200 x g for 15 minutes at 4° C. to pellet the precipitate. Samples are dried in a Savant SpeedVac Concentrator, Model SVC 200H, reconstituted to original volume with ice cold RIA or ELISA buffer, and stored at -70° C. until assayed. The assay for eicosanoids (LTB4, TxB2, and PGE2) is performed as described by the manufacturer of the [^3 H]-RIA kit or ELISA kit (LTB4 -Amersham, TxB2 and PGE2 -Caymen Chemical).
The total eicosanoid level in 2 ml of blood is calculated and reported as ng/10^6 neutrophils. Significance is determined by a one-way analysis of variance with least significant difference (LSD) comparisons to control (p≤0.05) and IC50 's (μM) are determined by regression analysis (Finney, 1978). Drug effects are expressed as percent change from control values.

[1] = system: LT-dependent bronchoconstriction; experiment: Inhibition of Bronchoconstriction in Guinea Pigs Induced by Exogenously Administered Antigen; type: in vivo, guinea pig (male); details: Cavia porcellus, 5 min, 5 min post-antigen challenge; for inhibition in vivo at 10 mg/kg: iv, 10 mg/kg i.v.
Procedure: 4. Inhibition of Brochoconstriction in Guinea Pigs Induced by Exogenously Administered Antigen
Male guinea pigs (Charles River, Wilmington, Mass.) were sensitized 3-4 weeks prior to antigen challenge by administration of 2 i.m. injections of ovalbumin, 1 into each hind limb (35 mg total). Sensitized animals (500-600 g) were fasted overnight prior to experimentation. Conscious animals were then dosed p.o. with drug or vehicle alone (0.5% Tween 80 in H2 O) at the indicated times prior to antigen challenge, or anesthetized animals were dosed i.v. with drug or vehicle alone (DMSO) 5 min prior to antigen challenge. Animals were anesthetized by urethane (2.8 g/kg i.p.). A carotid artery and jugular vein were cannulated to allow for the monitoring of blood pressure and the administration of drugs, respectively. The trachea was then cannulated and connected to a Harvard Apparatus rodent ventilator (S. Natick, Mass.). Spontaneous respiration was abolished by the administration of succinylcholine (2.5 mg/kg i.v.). The animals were then ventilated with room air at a rate of 65 breaths per min. Airway inflation pressure was measured using a Statham pressure transducer (Gould Instruments, Cleveland, Ohio) connected to the tracheal cannula via a side-arm and recorded on a Grass Instruments recorder (Quincy, Mass.). The tidal volume (approximately 10 cc/kg) was adjusted to give a baseline inflation pressure of 8-10 cm H2 O at end inspiration. Animals were then allowed 20 min to stabilize.
Following the stabilization period, animals were given i.v. injections of pyrilamine (5 mg/kg), propranolol (0.1 mg/kg) and indomethacin (10 mg/kg) at 15, 10 and 5 min, respectively, prior to antigen challenge. This pretreatment results in an LT-dependent bronchoconstriction following antigen challenge, which was accomplished by i.v. administration of ovalbumin (10 mg/kg). Only one bronchoconstriction per animal was induced. End-inspiratory inflation pressure (in cm H2 O over baseline) was measured at 5 min post-antigen challenge. A mean value and standard error for the % inhibition of control bronchoconstriction in each drug-treated group was then calculated.

## COc1ccc2c(c1)c(CC(=O)O)c(C)n2C(=O)c1ccc(Cl)cc1 [Indomethacin, reference compound]
LTB4 Synthesis; 4 mg/kg p.o.
  % Inhibition of LTB4: 12%

## O=C1CCN(c2ccccc2)N1 [Phenidone, reference compound]
LTB4 Synthesis; p.o.
  ED50: 10 mg/kg

## CC(C(=O)O)c1cccc(C(=O)c2ccccc2)c1 (stereo not shown) [Ketoprofen, reference compound]
LTB4 Synthesis; 10 mg/kg p.o.
  % Inhibition of LTB4: 35%

## Cc1oc(-c2cccc(C(F)(F)F)c2)nc1COc1cccc(CN(O)C(N)=O)c1 [Example 10, 1-Hydroxy-1-[3-[2-(3-trifluoromethyl-phenyl)-5-methyl-oxazol-4-ylmethoxy]-benzyl]-urea]
5-Lipoxygenase
  inhibition at 1 µM: 51%

## CC(/C=C/c1cccc(OCc2csc(-c3ccccc3)n2)c1)N(O)C(N)=O (stereo not shown) [Example 15, (E)-1-Hydroxy-1-[1-methyl-3-[3-(2-phenyl-thiazol-4-ylmethoxy)-phenyl]-allyl]-urea]
5-Lipoxygenase; 10 μM
  inhibition at 10 µM: 47%

## NC(=S)N(O)Cc1cccc(OCc2coc(-c3ccc(F)cc3)n2)c1 [Example 4, 1-Hydroxy-1-[3-[2-(4-fluoro-phenyl)-oxazol-4-ylmethoxy]-benzyl]-thiourea]
[1]
  inhibition in vivo at 10 mg/kg: 53%
5-Lipoxygenase
  inhibition at 1 µM: 61%

## Cc1oc(-c2cc(C(F)(F)F)cc(C(F)(F)F)c2)nc1COc1cccc(CN(O)C(N)=O)c1 [Example 11, 1-[3-[2-(3,5-Bis-trifluoromethyl-phenyl)-5-methyl-oxazol-4-ylmethoxy]-benzyl]-1-hydroxy-urea]
5-Lipoxygenase; 10 μM
  inhibition at 10 µM: 57%

## Cc1oc(-c2ccccc2)nc1COc1cccc(CN(O)C(=O)N(C)O)c1 [Example 18, 1,3-Dihydroxy-3-methyl-1-[3-(5-methyl-2-phenyl-oxazol-4-ylmethoxy)benzyl]-urea]
5-Lipoxygenase; 10 μM
  inhibition at 10 µM: 69%

## Cc1oc(-c2ccc(Cl)cc2)nc1COc1cccc(/C=C/C(C)N(O)C(N)=O)c1 (stereo not shown) [Example 16, (E)-1-[3-[3-[2-(4-chlorophenyl)-5-methyl-oxazol-4-ylmethoxy]-phenyl]-1-methyl-allyl]-1-hydroxyl-urea]
5-Lipoxygenase; 10 μM
  inhibition at 10 µM: 57%

## Cc1oc(-c2ccc(Cl)cc2)nc1COc1cccc(CN(O)C(N)=O)c1 [Example 8, 1-[3-[2-(4-Chloro-phenyl)-5-methyl-oxazol-4-ylmethoxy]-benzyl]-1-hydroxy-urea]
[1]
  inhibition in vivo at 10 mg/kg: 41%
LTB4 Synthesis; 10 mg/kg, p.o.
  % Inhibition LTB4 Synthesis: 39%
5-Lipoxygenase
  inhibition at 1 µM: 77%

## COc1ccc2cc([C@H](C)C(=O)O)ccc2c1 [Naproxen, reference compound]
LTB4 Synthesis; 4 mg/kg p.o.
  % Inhibition of LTB4: 0%

## NC1=NN(c2cccc(C(F)(F)F)c2)CC1 [BW755C, reference compound]
LTB4 Synthesis; p.o.
  ED50: 23 mg/kg

## O=C(O)Cc1ccccc1Nc1c(Cl)cccc1Cl [Diclofenac, reference compound]
LTB4 Synthesis; 10 mg/kg p.o.
  % Inhibition of LTB4: 0%

## Cc1oc(-c2ccc(C(F)(F)F)cc2)nc1COc1cc(F)cc(CN(O)C(N)=O)c1 [Example 12, 1-[3-Fluoro-5-[5-methyl-2-(4-trifluoromethyl-phenyl)-oxazol-4-ylmethoxy]-benzyl]-1-hydroxy-urea]
5-Lipoxygenase; 10 μM
  inhibition at 10 µM: 85%

## 1,3-Dihydroxy-1-[4-(5-methyl-2-phenyl-oxazol-4-ylmethoxy)-benzyl]-urea [Example 17]
5-Lipoxygenase; 10 μM
  % Inhibition of LTB4: 83%

## Cc1oc(-c2ccccc2)nc1COc1cccc(C(C)N(O)C(N)=O)c1 (stereo not shown) [Example 14, 1-Hydroxy-1-[1-[3-(5-methyl-2-phenyl-oxazol-4-ylmethoxy)-phenyl]-ethyl]-urea]
5-Lipoxygenase; 10 μM
  inhibition at 10 µM: 80%

## COc1ccc(-c2nc(COc3cccc(CN(O)C(N)=O)c3)cs2)cc1 [Example 7, 1-Hydroxy-1-[3-[2-(4-methoxy-phenyl)-thiazol-4-ylmethoxy]-benzyl]-urea]
[1]
  inhibition in vivo at 10 mg/kg: 58%
[1]; po, 25 mg/kg p.o.
  inhibition in vivo at 25 mg/kg: 18%
5-Lipoxygenase
  inhibition at 1 µM: 50%
